Holding throughout (format): functional
The test system of test [1] is Escherichia coli. The test is described as follows: Antibacterial activity Escherichia coli assessed as bacterial growth inhibition measured after 24 hrs by broth microdilution assay.
Test [2] has as its system Pseudomonas aeruginosa. The test can be described thus: Antibacterial activity Pseudomonas aeruginosa assessed as bacterial growth inhibition measured after 24 hrs by broth microdilution assay. A general note: Broth dilution looks for growth in wells or tubes with falling amounts of substance.
The subject of test [3] is Staphylococcus aureus. The test can be described thus: Antibacterial activity Staphylococcus aureus assessed as bacterial growth inhibition measured after 24 hrs by broth microdilution assay.
In test [4] the test system is Enterococcus faecalis. The test can be described thus: Antibacterial activity Enterococcus faecalis assessed as bacterial growth inhibition measured after 24 hrs by broth microdilution assay.
Test [5] has as its system Mycobacterium tuberculosis. The test can be described thus: Antimycobacterial activity against multidrug Mycobacterium tuberculosis assessed as bacterial growth inhibition by LJ slant assay.
Test [6] deals with Mycobacterium tuberculosis. The test can be described thus: Antimycobacterial activity against extensive drug Mycobacterium tuberculosis assessed as bacterial growth inhibition by LJ slant assay.
Test [7] concerns Pseudomonas aeruginosa. The test can be described thus: Antibacterial activity against clinical isolate multi drug resistant Pseudomonas aeruginosa PA259-96918 assessed as bacterial growth inhibition measured after 18 hrs by broth microdilution assay.
For test [8], the system named is Pseudomonas aeruginosa. The test is described as follows: Antibacterial activity against clinical isolate multi drug resistant Pseudomonas aeruginosa PA260-97103 assessed as bacterial growth inhibition measured after 18 hrs by broth microdilution assay.
For test [9], the system named is Pseudomonas aeruginosa. The test can be described thus: Antibacterial activity against clinical isolate multi drug resistant Pseudomonas aeruginosa PA262-101856 assessed as bacterial growth inhibition measured after 18 hrs by broth microdilution assay.
In test [10] the test system is Pseudomonas aeruginosa. The test is described as follows: Antibacterial activity against clinical isolate multi drug resistant Pseudomonas aeruginosa PA264-104354 assessed as bacterial growth inhibition measured after 18 hrs by broth microdilution assay.
Test [11] deals with Pseudomonas aeruginosa. The test can be described thus: Antibacterial activity against multi drug resistant Pseudomonas aeruginosa clinical isolate 100036 assessed as bacterial growth inhibition measured after 18 hrs by broth microdilution assay.
For test [12], the system named is Acinetobacter baumannii. The test is described as follows: Antibacterial activity against clinical isolate multi drug resistant Acinetobacter baumannii AB027 assessed as bacterial growth inhibition measured after 18 hrs by broth microdilution assay.
Test [13] relates to Acinetobacter baumannii. The test can be described thus: Antibacterial activity against clinical isolate multi drug resistant Acinetobacter baumannii AB031 assessed as bacterial growth inhibition measured after 18 hrs by broth microdilution assay.
In test [14] the test system is Acinetobacter baumannii. The test is described as follows: Antibacterial activity against multi drug resistant Acinetobacter baumannii clinical isolate 92247 assessed as bacterial growth inhibition measured after 18 hrs by broth microdilution assay.
The test system of test [15] is Acinetobacter baumannii. The test is described as follows: Antibacterial activity against clinical isolate multi drug resistant Acinetobacter baumannii LAC-4 assessed as bacterial growth inhibition measured after 18 hrs by broth microdilution assay.
The subject of test [16] is Escherichia coli. The test is described as follows: Antibacterial activity against multi drug resistant Escherichia coli clinical isolate 94393 assessed as bacterial growth inhibition measured after 18 hrs by broth microdilution assay.
The test system of test [17] is Escherichia coli. The test is described as follows: Antibacterial activity against multi drug resistant Escherichia coli clinical isolate 94474 assessed as bacterial growth inhibition measured after 18 hrs by broth microdilution assay.
Test [18] relates to Escherichia coli. The test can be described thus: Antibacterial activity against multi drug resistant Escherichia coli clinical isolate 107115 assessed as bacterial growth inhibition measured after 18 hrs by broth microdilution assay.
Test [19] has as its system Klebsiella pneumoniae. The test can be described thus: Antibacterial activity against multi drug resistant Klebsiella pneumoniae clinical isolate 113250 assessed as bacterial growth inhibition measured after 18 hrs by broth microdilution assay.
The test system of test [20] is Klebsiella pneumoniae. The test is described as follows: Antibacterial activity against multi drug resistant Klebsiella pneumoniae clinical isolate 113254 assessed as bacterial growth inhibition measured after 18 hrs by broth microdilution assay.
Test [21] concerns Klebsiella pneumoniae. The test can be described thus: Antibacterial activity against multi drug resistant Klebsiella pneumoniae clinical isolate 116381 assessed as bacterial growth inhibition measured after 18 hrs by broth microdilution assay.
Test [22] relates to Enterobacter cloacae. The test can be described thus: Antibacterial activity against multi drug resistant Enterobacter cloacae clinical isolate 117029 assessed as bacterial growth inhibition measured after 18 hrs by broth microdilution assay.
In test [23] the test system is Enterobacter cloacae. The test is described as follows: Antibacterial activity against multi drug resistant Enterobacter cloacae clinical isolate 118564 assessed as bacterial growth inhibition measured after 18 hrs by broth microdilution assay.
Test [24] deals with Enterobacter cloacae. The test is described as follows: Antibacterial activity against multi drug resistant Enterobacter cloacae clinical isolate 121187 assessed as bacterial growth inhibition measured after 18 hrs by broth microdilution assay.
Test [25] deals with Escherichia coli. The test is described as follows: Antibacterial activity Escherichia coli ATCC 25922 assessed as bacterial growth inhibition by broth microdilution assay.
For test [26], the system named is Staphylococcus aureus. The test is described as follows: Antibacterial activity Staphylococcus aureus ATCC 25923 assessed as bacterial growth inhibition by broth microdilution assay.
In test [27] the test system is Staphylococcus aureus. The test can be described thus: Antibacterial activity against methicillin resistant Staphylococcus aureus assessed as bacterial growth inhibition by two fold serial dilution assay.
The test system of test [28] is Pseudomonas aeruginosa. The test can be described thus: Antibacterial activity against Pseudomonas aeruginosa assessed as bacterial growth inhibition by two fold serial dilution assay.

≈ marks a conversion by molar mass, not a printed value.

As a reminder, the MIC is the least concentration at which growth counts as inhibited. Regarding `C[C@H](NC(=O)c1cc(=O)[nH]c2ccccc12)C(=O)O`, the minimal inhibitory concentration (MIC) in test [1], in test [2], in [3] and in [4] was 620 µg/mL (≈ 2380 µM) throughout.
As to `NC[C@@H]1O[C@@H](O[C@@H]2[C@@H](OCCCCCCCN3CCN(c4cc5c(cc4F)c(=O)c(C(=O)O)cn5C4CC4)CC3)[C@H](O[C@@H]3O[C@@H](CO)[C@H](O)[C@@H](N)[C@@H]3O)[C@@H](N)C[C@H]2N)[C@@H](N)C[C@H]1O`, the MIC in [5], in test [6], in test [7], in test [8], in test [9] and in [10] was at least 16 µg/mL each time. Moreover, the MIC in test [11], in test [12], in test [13], in [14], in [15] and in [16] was at least 16 µg/mL each time. The MIC in test [17], in test [18], in [19], in [20], in [21] and in [22] was at least 16 µg/mL each time. Also, the MIC in test [23] and in test [24] was at least 16 µg/mL each time.
Take `C[C@@H](NC(=O)C(Cl)Cl)C(=O)N1CCN(c2cc3c(cc2F)c(=O)c(C(=O)O)cn3C2CC2)CC1`: the minimum inhibitory concentration (MIC) in [25] was 0.082 µg/mL (≈ 0.16 µM); in [26], 0.167 µg/mL (≈ 0.325 µM).
Take `COc1c(N2CCN(C(=O)CN3CCN(CC(=O)O)CCN(CC(=O)O)CCN(CC(=O)O)CC3)C(C)C2)c(F)cc2c(=O)c(C(=O)O)cn(C3CC3)c12` (stereo not drawn): the MIC turned out to be 1.56 µg/mL (≈ 2.05 µM) in [27] and 3.12 µg/mL (≈ 4.1 µM) in [28].

These data come from ChEMBL document CHEMBL5360532, “Current scenario of quinolone hybrids with potential antibacterial activity against ESKAPE pathogens” (Eur J Med Chem, 2023).
